The assay deals with Tyrosine-protein phosphatase non-receptor type 22 (Homo sapiens) (UniProt Q9Y2R2). The assay can be described thus: inhibition of human PTPN22 tyrosine phosphatase – biochemical, DiFMUP fluorescence, recombinant catalytic domain, 10 µM, primary screen (AID 606). Particulars: recombinant LYP catalytic domain.

The source made the active and inactive calls.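 Rule for the calls: active = IC50 under 40 µM in the dose-response test; inactive = IC50 of 40 µM or more, or never dose-tested.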

Sequence of Tyrosine-protein phosphatase non-receptor type 22 (Homo sapiens) (Q9Y2R2 whole entry, looked up, the tested form may be a part): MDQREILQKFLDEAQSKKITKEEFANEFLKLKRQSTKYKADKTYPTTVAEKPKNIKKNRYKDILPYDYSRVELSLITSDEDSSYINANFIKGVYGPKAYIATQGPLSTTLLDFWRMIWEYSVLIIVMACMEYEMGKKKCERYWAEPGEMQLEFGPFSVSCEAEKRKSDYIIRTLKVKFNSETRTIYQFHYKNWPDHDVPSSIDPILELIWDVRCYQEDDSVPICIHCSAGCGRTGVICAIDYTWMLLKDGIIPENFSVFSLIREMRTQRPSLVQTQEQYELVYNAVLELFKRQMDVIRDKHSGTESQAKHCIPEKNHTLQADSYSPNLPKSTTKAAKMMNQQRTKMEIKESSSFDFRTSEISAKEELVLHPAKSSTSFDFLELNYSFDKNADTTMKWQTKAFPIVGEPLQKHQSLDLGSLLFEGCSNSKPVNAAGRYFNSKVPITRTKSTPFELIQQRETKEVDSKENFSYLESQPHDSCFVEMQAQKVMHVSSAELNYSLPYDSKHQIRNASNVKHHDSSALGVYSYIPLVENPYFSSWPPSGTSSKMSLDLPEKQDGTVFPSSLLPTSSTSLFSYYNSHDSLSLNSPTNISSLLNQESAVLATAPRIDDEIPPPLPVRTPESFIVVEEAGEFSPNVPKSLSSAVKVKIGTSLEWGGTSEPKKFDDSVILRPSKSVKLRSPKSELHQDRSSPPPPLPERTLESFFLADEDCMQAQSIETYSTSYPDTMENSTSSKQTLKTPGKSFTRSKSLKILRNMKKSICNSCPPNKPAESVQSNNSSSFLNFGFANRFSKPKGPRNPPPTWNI

As to `Oc1ccc2ccccc2c1C=NC12CN3CCN(CN(C3)C1)C2`, the IC50 was > 40 µM (inactive).

The values above are taken from PubChem BioAssay AID606 (Columbia University Molecular Screening Center, 2007).
